Test results reported in patent publication US8318489B2, “Prostacyclin directed differentiation of cardiomyocytes from human embryonic stem cells” (priority 2005, dated 2012).

Assays:
Assay type in all cases: cell-based, human
[1] = tested on: hES cells; experiment: Cardiomyocyte quantification via cytospin (MF-20 / αMHC staining); details: for cardiomyocyte yield compared to bSFS alone: L-IGF-I 5.0 ng/ml, AA 5.0 μM, FGF2 […] into bSFS
Experimental: EBs were washed twice with PBS (without calcium and magnesium) and dissociated to single cells using trypsin (Invitrogen). […] The cell pellet was resuspended in PBS and a cell count performed. 100,000 cells were spun at 500 rpm for 5 min onto glass slides at low acceleration using a cytospin system (Shandon). Adherent cells were fixed, stained and the total cell number (DAPI staining of cell nuclei) and the number of sarcomeric alpha myosin heavy chain positive cells (αMHC, MF-20 Ab, Hybridoma Bank, Iowa; 1:200 followed by respective rabbit-anti mouse Cy3-labeled secondary Ab 1:500, Zymed) were counted in at least 3 independent fields of view at 20× magnification with at least 300 nuclei per field; fields were randomly selected in the DAPI channel (Zeiss Axiovert 200M, Zeiss) avoiding bias towards cardiomyocyte content. The percentage of cardiomyocytes compared to the total cell nuclei number was calculated.
Readouts were performed on day 13. […] The percentage of cardiomyocytes was counted via cytospin and the cardiomyocyte yield was calculated from the total cell count per well and the percentage of cardiomyocytes. Results are presented in Table 2 which provides an analysis on day 12 EBs differentiated in the presence of respective media added with substances as indicated in the table. Differentiation was performed in suspension in a low attachment 6-well format. Average numbers per well of a 6-well plate are presented.

[2] = tested on: hES cells; experiment: Embryoid body differentiation of hES cells, visual scoring of beating EBs; details: for effect on induction of cardiomyocytes: supplemented to DMEM3 (giving bSFS); for CM induction activity (number of beating areas): growth factor 10 ng/ml added to END2-CM, day 12, compared to END2-CM alone
Experimental: This procedure describes the formation of embryoid bodies (EB) from collagenase-derived hES cell cultures. After formation the EBs were then exposed to END2 conditioned medium (CM).
Enzymatically passaged hES cells grown on feeder cells were washed once with PBS^+ and treated with Collagenase IV (1 mg/ml) for 3-4 min at 37° C. The Collagenase IV solution was replaced by DMEM and the cells were mechanically dissociated with a pipette tip. Cells were then harvested using a cell scraper and the cell suspension was transferred to a 50 ml tube (Falcon). Cell clumps were collected by gravity and the supernatant was aspirated. Cells were resuspended in fresh DMEM medium aiming to uniformly disperse the cell clumps in the suspension. An equal volume of the cell suspension was then transferred to ultra low attachment plates (Costar). Usually 6-well plates were used and cells were cultured in 2 ml of medium. Alternatively, cells can be seeded into plates under conditions supporting cell adherence to induce differentiation of hES cells attached to a surface.
In suspension culture, EBs are formed in ultra low attachment plates in SF medium over night. After over night incubation SF medium was replaced by fresh SF medium or END2-CM respectively for further differentiation. Subsequent medium changes were performed every 3-4 days. Usually, cells were cultured over a period of 12-13 days before the visual analysis of the proportion of beating EBs under a microscope was performed followed by cell collection for additional readouts. Multiple beating areas on single EBs were not counted separately. Values are expressed as a percentage of contracting EBs compared to […] in a single well of a 6-well tray. Cell harvest and analysis at time points other then 12-13 days after EB formation is indicated in the respective examples and figures of this embodiment. For EB scoring and other analytical methods hES cell differentiation was performed in triplicates applying the same culture conditions (e.g. the same medium added) in 3 independent wells of a 6-well plate. An average value per well was calculated and presented.

[3] = tested on: hES cells; experiment: Real time RT-PCR for cardiac markers (α-MHC, ANF)
Experimental: RNA extraction: EBs at the end of the twelve day period were harvested. […] Trizol (Invitrogen) was added before freezing the EBs at -80° C. to ease cell lysis. Frozen samples were thawed and […]. Chloroform was added to the sample and incubated for 3 min at room temperature. The sample was centrifuged for 15 min at 13000 rpm at 4° C. and the aqueous phase collected. An equal volume of 70% ethanol was added before the sample was loaded onto an RNeasy mini column (Qiagen). The column was centrifuged for 15 sec at ≧8000 g. The rest of the purification steps were performed according to manufacturer's instructions. RNA was eluted in RNase-free water. 5 μg of the RNA sample was then treated with DNase (Invitrogen) in a volume of 50 μl. The mixture was incubated at room temperature for 30 min and heat inactivated for 10 min at 80° C. before cooling rapidly on ice. […] Samples were incubated for 1 hour at 37° C. before the reaction was terminated for 5 min at 95° C. RT-PCR was performed using 100 ng of cDNA with the following conditions: Cycle 1 (40×) denaturation at 95° C. for 10 s, annealing at 58° C. for 30 s and extension at 72° C. for 45 s. Melting curve step was included at the end with the following conditions: […] The gene primers used are α-MHC (sense primer: […] NO: 1); antisense primer: […] (sense primer: […] NO: 3); antisense primer […] NO: 4)) and β-Actin (sense primer: […] […]

[4] = tested on: Transgenic hES cells carrying α-MHCneo; experiment: G418 selection of transgenic hES-derived cardiomyocytes, MF-20 staining
Experimental: Transgenic hES cells carrying α-MHCneo were differentiated in END-2 conditioned media as described in Example 8 and then selected with 200 µg/ml or 400 μg/ml G418 for various periods. Cells were dissociated by trypsin and plated onto chamber slides. Transgenic cardiomyocytes that were not selected with G418 were also plated as a control. Cells were then fixed by 2% paraformaldehyde and stained with the MF-20 antibody, which recognizes cardiac α-MHC. Cells were counterstained with haematoxylin to reveal nuclei. Cells […] for MF-20 staining in each slide preparation were counted and calculated as a percentage of total nuclei.

[5] = tested on: H3M11 cardiomyocytes; experiment: Microelectrode array recording of selected cardiomyocytes; details: 10 μM isoproterenol; from 46 beats/min before addition
Description: H3M11, one of the transgenic hES lines carrying the mouse α-MHCneo transgene, was differentiated in END-2 conditioned media to induce cardiomyocytes and then selected with G418 for 1 week. G418-selected H3M11 cardiomyocytes were dissociated and plated on microelectrode array chips each containing 64 electrodes (Multi Channel Systems MCS GmbH, Reutlingen, Germany). Extracellular recordings were made with the MEA1060 amplifier and MC-Rack software. Sampling rate was 10 kHz. A control recording was made before addition of compounds.

[6] = insulin 0.1-10 μg/ml added to END2-CM

CC(=O)O [AA, acetic acid]
cardiomyocyte yield compared to bSFS alone [1]: some increase

O=[Se]([O-])[O-].[Na+].[Na+] [Selenium, sodium Selenite]
effect on induction of cardiomyocytes [2]: not inhibitory

Scf: recombinant human Scf, stem cell factor (CytoLab)
CM induction activity (number of beating areas) [2]: enhance CM induction activity

insulin: Insulin (Roche) spiked into END2-CM
cardiomyocyte formation from hESC ([2]; insulin 10 μg/ml added to END2-CM): complete inhibition
cardiomyocyte formation from hESC [2, 6]: dose dependent inhibition
relative expression of early cardiomyocyte markers (MesP1, NRx2.5, ANF, α-MHC) [3, 6]: dose dependent decrease in expression

CCCCC[C@H](O)/C=C/[C@@H]1[C@H]2C/C(=C/CCCC(=O)[O-])O[C@H]2C[C@H]1O.[Na+] [PGI2, (5Z,9α,11α,13E,15S)-6,9-Epoxy-11,15-dihydroxyprosta-5,13-dien-1-oic acid Sodium salt]
cardiomyocyte inducing activity ([2]; PGI2 0.2 and 2.0 μM in bSFS): increase in cardiomyocyte inducing activity to levels similar to that observed with END2-CM
percentage of beating EBs ([2]; PGI2 2, 20, 200, 2000 nM in DMEM3, day 12, in comparison with basic DMEM3): significant increases
expression of cardiomyocyte marker genes α-MHC and ANF ([3]; bSFS+PGI2 compared to END-CM): equivalent, if not enhanced expression
percentage of the overall cell population that forms cardiomyocytes ([1]; bSFS+PGI2, cytospin MF20): equivalent to that observed in END2-CM cultures

FGF2: Basic Fibroblast Growth Factor; Invitrogen
cardiomyocyte yield compared to bSFS alone [1]: some increase

Igf2: recombinant human Igf2 (R&D)
CM induction activity (number of beating areas) [2]: enhance CM induction activity

CN[C@@H]1[C@@H](O)[C@@H](O[C@@H]2[C@@H](O)[C@H](O[C@H]3O[C@H]([C@@H](C)O)[C@@H](O)[C@H](O)[C@H]3N)[C@@H](N)C[C@H]2N)OC[C@]1(C)O [G418]
Percent cardiomyocytes ([4]; G418 200 μg/ml for 10 days): 99.02%
Percent cardiomyocytes ([4]; G418 200 μg/ml for 16 days): 99.20%
Percent cardiomyocytes ([4]; G418 400 μg/ml 13 days): 99.53%
Percent cardiomyocytes ([4]; G418 400 μg/ml for 7 days): 99.85%
cells positive for the cardiac marker ([4]; two different G418 concentrations for various days): greater than 99%

Transferrin: medium supplement, 0.0055 mg/ml Transferrin (Roche)
effect on induction of cardiomyocytes [2]: not inhibitory

CC(C)NCC(O)c1ccc(O)c(O)c1 (stereo not shown) [isoproterenol]
beating frequency [5]: 70 beats/min
